Experimental data: PubChem BioAssay (NCI)
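Exposure lasted 48 hours, with cells grown in 96-well plates and compounds tested at five concentrations. TGI: concentration producing complete growth inhibition.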

What was measured:
Assay in all cases: growth of human tumour cells (NCI), 48 h
786-0 renal = test system: 786-0 renal
A498 renal = test system: A498 renal
A549 NSCLC = test system: A549 NSCLC
ACHN renal = test system: ACHN renal
BT-549 breast = test system: BT-549 breast
CAKI-1 renal = test system: CAKI-1 renal
CCRF-CEM leukemia = test system: CCRF-CEM leukemia
COLO 205 colon = test system: COLO 205 colon
DU-145 prostate = test system: DU-145 prostate
EKVX NSCLC = test system: EKVX NSCLC
HCC-2998 colon = test system: HCC-2998 colon
HCT-116 colon = test system: HCT-116 colon
HCT-15 colon = test system: HCT-15 colon
HL-60(TB) leukemia = test system: HL-60(TB) leukemia
HOP-62 NSCLC = test system: HOP-62 NSCLC
HOP-92 NSCLC = test system: HOP-92 NSCLC
HS 578T breast = test system: HS 578T breast
HT29 colon = test system: HT29 colon
IGROV1 ovarian = test system: IGROV1 ovarian
K-562 leukemia = test system: K-562 leukemia
KM12 colon = test system: KM12 colon
LOX IMVI melanoma = test system: LOX IMVI melanoma
M14 melanoma = test system: M14 melanoma
MALME-3M melanoma = test system: MALME-3M melanoma
MCF7 breast = test system: MCF7 breast
MDA-MB-231 breast = test system: MDA-MB-231 breast
MDA-MB-435 = test system: MDA-MB-435
MDA-N = test system: MDA-N
MOLT-4 leukemia = test system: MOLT-4 leukemia
NCI-H226 lung = test system: NCI-H226 lung
NCI-H23 lung = test system: NCI-H23 lung
NCI-H460 lung = test system: NCI-H460 lung
NCI-H522 lung = test system: NCI-H522 lung
NCI/ADR-RES ovarian = test system: NCI/ADR-RES ovarian
OVCAR-3 ovarian = test system: OVCAR-3 ovarian
OVCAR-4 ovarian = test system: OVCAR-4 ovarian
OVCAR-5 ovarian = test system: OVCAR-5 ovarian
OVCAR-8 ovarian = test system: OVCAR-8 ovarian
PC-3 prostate = test system: PC-3 prostate
RPMI-8226 leukemia = test system: RPMI-8226 leukemia
RXF 393 renal = test system: RXF 393 renal
SF-268 CNS = test system: SF-268 CNS
SF-295 CNS = test system: SF-295 CNS
SK-MEL-2 melanoma = test system: SK-MEL-2 melanoma
SK-MEL-28 melanoma = test system: SK-MEL-28 melanoma
SK-MEL-5 melanoma = test system: SK-MEL-5 melanoma
SK-OV-3 ovarian = test system: SK-OV-3 ovarian
SN12C renal = test system: SN12C renal
SNB-19 CNS = test system: SNB-19 CNS
SNB-75 CNS = test system: SNB-75 CNS
SR leukemia = test system: SR leukemia
SW-620 colon = test system: SW-620 colon
T-47D breast = test system: T-47D breast
TK-10 renal = test system: TK-10 renal
U251 CNS = test system: U251 CNS
UACC-257 melanoma = test system: UACC-257 melanoma
UACC-62 melanoma = test system: UACC-62 melanoma
UO-31 renal = test system: UO-31 renal
SF-539 CNS = test system: SF-539 CNS

How did the TGI (786-0 renal) turn out when `NS(=O)(=O)c1ccc(N=C2C(=O)Nc3ccccc32)cc1` was run?
The TGI was over 100 µM.

What about the TGI (A498 renal) of the same compound?
Its TGI is over 100 µM.

And the TGI (A549 NSCLC)?
Its TGI is over 100 µM.

And the TGI (ACHN renal)?
Its TGI is over 100 µM.

And the TGI (BT-549 breast)?
The TGI was over 100 µM.

And the TGI (CAKI-1 renal)?
Its TGI is over 100 µM.

And the TGI (CCRF-CEM leukemia)?
Its TGI is over 100 µM.

What about the TGI (COLO 205 colon) of the same compound?
The TGI was 98.4 µM.

What about the TGI (DU-145 prostate) of the same compound?
The TGI was over 100 µM.

What about the TGI (EKVX NSCLC) of the same compound?
The TGI was over 100 µM.

And the TGI (HCC-2998 colon)?
The TGI was over 100 µM.

And the TGI (HCT-116 colon)?
The TGI was over 100 µM.

And the TGI (HCT-15 colon)?
The TGI was over 100 µM.

What about the TGI (HL-60(TB) leukemia) of the same compound?
The TGI was over 100 µM.

And the TGI (HOP-62 NSCLC)?
The TGI was over 100 µM.

And the TGI (HOP-92 NSCLC)?
The TGI was over 100 µM.

What about the TGI (HS 578T breast) of the same compound?
Its TGI is over 100 µM.

And the TGI (HT29 colon)?
Its TGI is over 100 µM.

What about the TGI (IGROV1 ovarian) of the same compound?
Its TGI is over 100 µM.

What about the TGI (K-562 leukemia) of the same compound?
Its TGI is over 100 µM.

And the TGI (KM12 colon)?
The TGI was over 100 µM.

What about the TGI (LOX IMVI melanoma) of the same compound?
Its TGI is over 100 µM.

And the TGI (M14 melanoma)?
Its TGI is over 100 µM.

And the TGI (MALME-3M melanoma)?
The TGI was over 100 µM.

What about the TGI (MCF7 breast) of the same compound?
The TGI was over 100 µM.

And the TGI (MDA-MB-231 breast)?
The TGI was over 100 µM.

What about the TGI (MDA-MB-435) of the same compound?
Its TGI is 72.7 µM.

And the TGI (MDA-N)?
The TGI was over 100 µM.

And the TGI (MOLT-4 leukemia)?
The TGI was over 100 µM.

And the TGI (NCI-H226 lung)?
The TGI was over 100 µM.

What about the TGI (NCI-H23 lung) of the same compound?
The TGI was over 100 µM.

And the TGI (NCI-H460 lung)?
The TGI was over 100 µM.

And the TGI (NCI-H522 lung)?
Its TGI is over 100 µM.

What about the TGI (NCI/ADR-RES ovarian) of the same compound?
The TGI was over 100 µM.

And the TGI (OVCAR-3 ovarian)?
Its TGI is over 100 µM.

What about the TGI (OVCAR-4 ovarian) of the same compound?
The TGI was over 100 µM.

And the TGI (OVCAR-5 ovarian)?
The TGI was over 100 µM.

And the TGI (OVCAR-8 ovarian)?
Its TGI is over 100 µM.

What about the TGI (PC-3 prostate) of the same compound?
Its TGI is over 100 µM.

And the TGI (RPMI-8226 leukemia)?
The TGI was over 100 µM.

What about the TGI (RXF 393 renal) of the same compound?
The TGI was over 100 µM.

What about the TGI (SF-268 CNS) of the same compound?
The TGI was over 100 µM.

And the TGI (SF-295 CNS)?
The TGI was over 100 µM.

And the TGI (SK-MEL-2 melanoma)?
The TGI was over 100 µM.

And the TGI (SK-MEL-28 melanoma)?
Its TGI is over 100 µM.

And the TGI (SK-MEL-5 melanoma)?
Its TGI is over 100 µM.

And the TGI (SK-OV-3 ovarian)?
Its TGI is over 100 µM.

And the TGI (SN12C renal)?
The TGI was over 100 µM.

And the TGI (SNB-19 CNS)?
The TGI was over 100 µM.

And the TGI (SNB-75 CNS)?
Its TGI is over 100 µM.

What about the TGI (SR leukemia) of the same compound?
Its TGI is over 100 µM.

What about the TGI (SW-620 colon) of the same compound?
Its TGI is over 100 µM.

What about the TGI (T-47D breast) of the same compound?
The TGI was over 100 µM.

And the TGI (TK-10 renal)?
The TGI was over 100 µM.

What about the TGI (U251 CNS) of the same compound?
The TGI was over 100 µM.

And the TGI (UACC-257 melanoma)?
Its TGI is over 100 µM.

What about the TGI (UACC-62 melanoma) of the same compound?
Its TGI is over 100 µM.

And the TGI (UO-31 renal)?
The TGI was over 100 µM.

`O=C1CCSc2nc(-c3ccc4c(c3)OCO4)nn21` was tested. Which TGI (786-0 renal) did it give?
Its TGI is over 10 µM.

What about the TGI (A498 renal) of the same compound?
The TGI was over 10 µM.

And the TGI (A549 NSCLC)?
Its TGI is over 10 µM.

What about the TGI (ACHN renal) of the same compound?
Its TGI is over 10 µM.

What about the TGI (BT-549 breast) of the same compound?
Its TGI is over 10 µM.

What about the TGI (CAKI-1 renal) of the same compound?
The TGI was over 10 µM.

And the TGI (CCRF-CEM leukemia)?
The TGI was over 10 µM.

What about the TGI (COLO 205 colon) of the same compound?
Its TGI is over 10 µM.

And the TGI (DU-145 prostate)?
Its TGI is over 10 µM.

What about the TGI (EKVX NSCLC) of the same compound?
Its TGI is over 10 µM.

And the TGI (HCC-2998 colon)?
Its TGI is over 10 µM.

And the TGI (HCT-116 colon)?
The TGI was over 10 µM.

And the TGI (HCT-15 colon)?
The TGI was over 10 µM.

And the TGI (HL-60(TB) leukemia)?
Its TGI is over 10 µM.

And the TGI (HOP-62 NSCLC)?
Its TGI is over 10 µM.

What about the TGI (HOP-92 NSCLC) of the same compound?
Its TGI is over 10 µM.

What about the TGI (HS 578T breast) of the same compound?
Its TGI is over 10 µM.

What about the TGI (HT29 colon) of the same compound?
The TGI was over 10 µM.

What about the TGI (IGROV1 ovarian) of the same compound?
The TGI was over 10 µM.

And the TGI (K-562 leukemia)?
Its TGI is over 10 µM.

And the TGI (KM12 colon)?
Its TGI is over 10 µM.

And the TGI (LOX IMVI melanoma)?
Its TGI is over 10 µM.

And the TGI (M14 melanoma)?
The TGI was over 10 µM.

And the TGI (MALME-3M melanoma)?
Its TGI is over 10 µM.

What about the TGI (MCF7 breast) of the same compound?
The TGI was over 10 µM.

And the TGI (MDA-MB-231 breast)?
Its TGI is over 10 µM.

And the TGI (MDA-MB-435)?
Its TGI is over 10 µM.

What about the TGI (MDA-N) of the same compound?
Its TGI is over 10 µM.

What about the TGI (MOLT-4 leukemia) of the same compound?
Its TGI is over 10 µM.

What about the TGI (NCI-H226 lung) of the same compound?
The TGI was over 10 µM.

And the TGI (NCI-H23 lung)?
The TGI was over 10 µM.

And the TGI (NCI-H460 lung)?
Its TGI is over 10 µM.

What about the TGI (NCI-H522 lung) of the same compound?
The TGI was over 10 µM.

And the TGI (NCI/ADR-RES ovarian)?
Its TGI is over 10 µM.

What about the TGI (OVCAR-3 ovarian) of the same compound?
Its TGI is over 10 µM.

And the TGI (OVCAR-4 ovarian)?
Its TGI is over 10 µM.

What about the TGI (OVCAR-5 ovarian) of the same compound?
The TGI was over 10 µM.

What about the TGI (OVCAR-8 ovarian) of the same compound?
Its TGI is over 10 µM.

And the TGI (PC-3 prostate)?
Its TGI is over 10 µM.

And the TGI (RPMI-8226 leukemia)?
The TGI was over 10 µM.

And the TGI (RXF 393 renal)?
The TGI was over 10 µM.

What about the TGI (SF-268 CNS) of the same compound?
The TGI was over 10 µM.

And the TGI (SF-295 CNS)?
Its TGI is over 10 µM.

And the TGI (SF-539 CNS)?
Its TGI is over 10 µM.

And the TGI (SK-MEL-2 melanoma)?
Its TGI is over 10 µM.

And the TGI (SK-MEL-28 melanoma)?
Its TGI is over 10 µM.

What about the TGI (SK-MEL-5 melanoma) of the same compound?
The TGI was over 10 µM.

What about the TGI (SK-OV-3 ovarian) of the same compound?
The TGI was over 10 µM.

What about the TGI (SN12C renal) of the same compound?
Its TGI is over 10 µM.

And the TGI (SNB-19 CNS)?
Its TGI is over 10 µM.

What about the TGI (SNB-75 CNS) of the same compound?
Its TGI is over 10 µM.

And the TGI (SR leukemia)?
Its TGI is over 10 µM.

What about the TGI (SW-620 colon) of the same compound?
The TGI was over 10 µM.

What about the TGI (T-47D breast) of the same compound?
Its TGI is over 10 µM.

And the TGI (TK-10 renal)?
Its TGI is over 10 µM.

And the TGI (U251 CNS)?
The TGI was over 10 µM.

And the TGI (UACC-257 melanoma)?
Its TGI is over 10 µM.

And the TGI (UACC-62 melanoma)?
Its TGI is over 10 µM.
